Measurements from patent US9914698B2, “Stearoyl amino acid salt and preparation method and application thereof” (Shanghai Jiaotong University School of Medicine, priority 2014, dated 2018).
Where two headings read alike, the source gives them in different places. Marks after values point to notes of the source that are not given here.

Legend:
[1] = Equilibrium solubility, shake-flask method; assay type: physicochemical; settings: 37 °C, thermodynamic from solid, read-out: Equilibrium solubility in buffer solution
Procedure: (§1) The shake-flask method was used to test the equilibrium solubility of NsTyr, NsTyr-2K, NsTyr-2Na in water at 37° C. […] The apparent lipid-water distribution coefficient log p of NsTyr-2K, NsTyr-2Na was respectively 1.512 and 1.477. Under different pHs, see Table 1 for the equilibrium solubility test data of NsTyr-2K, NsTyr-2Na; and see Table 2 for the apparent lipid-water distribution coefficient of NsTyr-2K and NsTyr-2Na.

[2] = Apparent lipid-water distribution coefficient; assay type: physicochemical
Procedure: as §1

[3] = Stability assessment (influencing factors, acceleration and long-term tests, Chinese Pharmacopoeia 2010); assay type: physicochemical; settings: high temperature, high humidity, strong light
Procedure: Considering that prototype drug stearoyl amino acid tend to absorb moisture, cake and become yellowish during long-term storage, the stearoyl amino acid is now converted into a form of active salt thereof. And the stability of NsTyr-2K and NsTyr-2Na was tested as required for bulk pharmaceutical chemicals according to the People's Republic of China Pharmacopoeia 2010.

[4] = Absorption kinetics after intragastric administration; assay type: in vivo; settings: SD rats, oral 200 mg/kg
Procedure: Ten SD rats weighing 150-180 g were randomly divided into two groups, each comprising five, with males and females combined. After intragastric administration of 200 mg/kg of saline solution containing NsTyr and NsTyr-2K, the average blood concentration-time curve thereof was respectively shown in FIG. 2.

[5] = tested on: gerbil model with global ischemia reperfusion injury; assay: Neurobehavioral scores of acute cerebral ischemia reperfusion model; assay type: in vivo; settings: ischemic model group 3.1+/−0.32
Excerpt: (§2) Taking N-stearoyl amino acid potassium NsTyr-2K as an example, a gerbil model with global ischemia reperfusion injury was used to assess the protective role of NsTyr-2K against neurobehavioral disorder caused by cerebral ischemia-reperfusion injury by examining the changing behavioral indexes such as spatial, learning and cognitive functions in the perspective of overall animals during passive dark avoidance test and Morris water maze test.

[6] = tested on: gerbil model with global ischemia reperfusion injury; assay: Dark avoidance test; assay type: in vivo; settings: compared with the ischemia group; NsTyr-2K 15, 30, 60 mg/kg; nimotop positive control
Excerpt: as §2
Dark avoidance test was used to evaluate the effects of NsTyr-2K influence on animal learning and memory abilities.

[7] = tested on: gerbil model with global ischemia reperfusion injury; assay: Morris water maze test (cerebral ischemia); assay type: in vivo
Excerpt: as §2
Up to day 4, for normal animals their latency fell to 29.8+/−12.55 s, and their swimming distance to 3,216.5+/−1,026.46 cm. From day 1 to day 2, there was no evident difference in the average latency before reaching the platform and the swimming distance prior to going onto the platform between the ischemia group of gerbils and any of the other groups. As training sessions increased, the latency and swimming distance of each group of gerbils before reaching the platform was shortened. The gap between the ischemia group and any of the other groups began to widen and reached the record on day 4.

[8] = Acute toxicity test; settings: mouse, in vivo; oral, Kunming mice
Excerpt: (§3) After oral administration of NsTyr-2K, the mice were weighed. […] However, their weight followed up rapidly as food intake recovered.
(§4) After 15-day administration of NsTyr-2K, the mouse organs (brain, heart, lung, liver and kidney) were studied to see if there was any change.
(§5) This means that mouse brain tissues had not been severely damaged under such dose, and that NsTyr-2K had high safety. Even so, it is necessary to conduct further long-term safety assessment of any possible side effect of NsTyr-2K on liver and hear in the following medicinal research and to precisely determine the amount of administration required.

[9] = tested on: Kunming mice; assay: Acute toxicity test; settings: mouse, in vivo
Excerpt: as §3, §4, §5

[10] = tested on: obese mouse model; assay: Collection and observation of fat and liver tissues of obese mice; assay type: in vivo, C57BL/6 mice; settings: for perirenal fat percentage quality: HFD I blank 1.63 ± 0.10; for Epididymal fat percentage quality: HFD I blank 2.99 ± 0.08; for Liver percentage quality: HFD I blank 3.51 ± 0.07
Excerpt: 2. Method: After administration test in Embodiment 8, the mice were denied food overnight. Their abdominal cavity was opened to observe abdominal fat content in each group of the mice. Epididymal fat, perirenal fat and liver were separated and weighed.

[11] = tested on: obese mouse model; assay: H&E staining of fat and liver tissue of obese mice; assay type: in vivo, C57BL/6 mice
Procedure: 2. Method: Epididymal fat and liver were fixed in 10% neutral formaldehyde solution for 48 h. After paraffin embedding they were made into […] of slices, and stained with hematoxylin-eosin (H&E staining). Light microscope was used to observe the size of fat cells, the structure of liver cells and adipose accumulation.

[12] = both sexes, Sprague-Dawley (SD), rat, blood

`CCCCCCCCCCCCCCCCCC(=O)N[C@@H](Cc1ccc(O)cc1)C(=O)[O-].[K+]` [NsTyr-2K, N-stearoyl tyrosine potassium salt] showed a solubility thermodynamic ([1]; aqueous buffer, pH 2.0) of 0.0493 mg/mL, a solubility thermodynamic ([1]; aqueous buffer, pH 3.0) of 0.0585 mg/mL and a solubility thermodynamic ([1]; aqueous buffer, pH 4.0) of 0.188 mg/mL. It also gave a solubility thermodynamic ([1]; aqueous buffer, pH 5.0) of 0.221 mg/mL, a solubility thermodynamic ([1]; aqueous buffer, pH 6.0) of 0.243 mg/mL and a solubility thermodynamic ([1]; aqueous buffer, pH 7.0) of 0.251 mg/mL. For the same compound, the solubility thermodynamic ([1]; aqueous buffer, pH 8.0) was 0.286 mg/mL, the solubility thermodynamic ([1]; aqueous buffer, pH 9.0) was 0.37 mg/mL and the solubility thermodynamic ([1]; pH 7.4, aqueous buffer) was 0.27 mg/mL. The logP [2] was 1.51, the “Apparent lipid-water distribution coefficient Ko/w” value ([2]; buffer pH 2.0) was 76.020 and the logP ([2]; buffer pH 2.0, read-out: Apparent lipid-water distribution coefficient LogP) was 1.88. The “Apparent lipid-water distribution coefficient Ko/w” value ([2]; buffer pH 3.0) was 30.571, the logP ([2]; buffer pH 3.0, read-out: Apparent lipid-water distribution coefficient LogP) was 1.49 and the “Apparent lipid-water distribution coefficient Ko/w” value ([2]; buffer pH 4.0) was 16.020. The logP ([2]; buffer pH 4.0, read-out: Apparent lipid-water distribution coefficient LogP) was 1.21, the “Apparent lipid-water distribution coefficient Ko/w” value ([2]; buffer pH 5.0) was 21.934 and the logP ([2]; buffer pH 5.0, read-out: Apparent lipid-water distribution coefficient LogP) was 1.34. The “Apparent lipid-water distribution coefficient Ko/w” value ([2]; buffer pH 6.0) was 28.935, the logP ([2]; buffer pH 6.0, read-out: Apparent lipid-water distribution coefficient LogP) was 1.46 and the “Apparent lipid-water distribution coefficient Ko/w” value ([2]; buffer pH 7.0) was 37.855. For the same compound, the logP ([2]; buffer pH 7.0, read-out: Apparent lipid-water distribution coefficient LogP) was 1.58, the “Apparent lipid-water distribution coefficient Ko/w” value ([2]; buffer pH 7.4) was 16.674 and the logP ([2]; buffer pH 7.4, read-out: Apparent lipid-water distribution coefficient LogP) was 1.22. For the same compound, the “Apparent lipid-water distribution coefficient Ko/w” value ([2]; buffer pH 8.0) was 13.797, the logP ([2]; buffer pH 8.0, read-out: Apparent lipid-water distribution coefficient LogP) was 1.14 and the “Apparent lipid-water distribution coefficient Ko/w” value ([2]; buffer pH 9.0) was 13.140. The logP ([2]; buffer pH 9.0, read-out: Apparent lipid-water distribution coefficient LogP) was 1.12, the stability [3] was “stable properties” and the “AUC multiplied, compared with NsTyr” value [4] was 30 times. For the same compound, the “half-life period compared with NsTyr” value [4] was “nearly doubled”, the “peak concentration Cmax multiplied, compared with NsTyr” value [4] was about 20 times and the AUC(0-inf) [4, 12] was 3.69 µg·h/mL. The AUC(0-t) [4, 12] was 3.49 µg·h/mL, the Cmax [4, 12] was 2.4 µg/mL and the MRT last [4, 12] was 2.19 h. The Tmax [4, 12] was 0.6 h, the half-life [4, 12] was 2.9 h and the neurobehavioral score ([5]; 15 mg/kg) was 1.76+/−0.48. The neurobehavioral score ([5]; 30 mg/kg) was 1.25+/−0.31, the “error counts within 5 min” value [6] was “much fewer error counts within 5 min” and the latency [6] was “much prolonged latency”. The “period before finding the underwater platform and swimming distance” value ([7]; 15 mg/kg, compared with the model group) was “no obvious difference”, the “time percentage and swimming distance percentage in the first quadrant (probe test)” value ([7]; day 5, platform removed, against ischemia group, NsTyr-2K 30 and 60 mg/kg, nimotop control) was “statistical difference” and the “period before finding the underwater platform and swimming distance” value ([7]; days 3 and 4, compared with the ischemia group, NsTyr-2K 30 and 60 mg/kg, nimotop positive control) was “a shortened period before finding the underwater platform and a shortened swimming distance”. For the same compound, the LD50 at 15 days [8] was over 2000 mg/kg, the behavioral abnormality [9] was “no evidence of behavioral abnormality except loss of appetite and weight” and the organ coefficient [9] was “exerted certain influence upon mouse brain, heart and liver coefficients”. The “perirenal fat percentage quality” value ([10]; 20 mg/kg/day) was 1.51 ± 0.07 g/100 g weight, the “Epididymal fat percentage quality” value ([10]; 20 mg/kg/day) was 2.94 ± 0.11 g/100 g weight and the Liver percentage quality ([10]; 20 mg/kg/day) was 3.47 ± 0.05 g/100 g weight. For the same compound, the “perirenal fat percentage quality” value ([10]; 60 mg/kg/day) was 1.37 ± 0.04 g/100 g weight, the “Epididymal fat percentage quality” value ([10]; 60 mg/kg/day) was 2.72 ± 0.07 g/100 g weight and the Liver percentage quality ([10]; 60 mg/kg/day) was 3.41 ± 0.06***^ g/100 g weight. For the same compound, the “perirenal fat percentage quality” value ([10]; 100 mg/kg/day) was 1.26 ± 0.05 g/100 g weight, the “Epididymal fat percentage quality” value ([10]; 100 mg/kg/day) was 2.64 ± 0.08 g/100 g weight and the Liver percentage quality ([10]; 100 mg/kg/day) was 3.46 ± 0.07***^ g/100 g weight. The abdominal fat pad ([10]; increasing doses 20, 60, 100 mg/kg/day, compared with HFD I) was “the abdominal fat pad showed a shrinking trend”, the “abdominal fat quality, compared with Orlistat” value ([10]; same dose (100 mg/kg)) was “better effects in reducing abdominal fat quality than Orlistat” and the “size of epididymal fat cells” value ([11]; HFD III, HFD IV (NST-2K 60, 100 mg/kg/day) and HFD V (Orlistat 100 mg/kg/day) vs HFD I) was “evidently smaller fat cells than HFD I”. The “fat accumulation in liver tissues” value ([11]; as the administration dose increased, vs HFD I) was “the accumulation began to ease” and the “size of epididymal fat cells” value ([11]; low-dose (20 mg/kg/day)) was “could not significantly shrink fat cells”.
